Assay [1] relates to super sensitive Gram-negative Escherichia coli (E. coli) BAS849. The assay is described as follows: Antibacterial activity, microbroth dilution MIC, E. coli BAS849. The following applies: Escherichia coli; E. coli BAS849, microbroth dilution; read-out: MIC, BAS849. In kind it is cell-based. (Broth dilution looks for growth in wells or tubes with falling amounts of substance.)
Assay [2] relates to control Gram-negative E. coli 25922 strain. The assay is described as follows: Antibacterial activity, microbroth dilution MIC, E. coli 25922. The following applies: Escherichia coli; E. coli 25922, microbroth dilution; read-out: MIC, 25922. In kind it is cell-based, Escherichia coli.
For assay [3], the system named is Gram-positive Staphylococcus aureus (S. aureus) 29213. Description: Antibacterial activity, microbroth dilution MIC, S. aureus 29213. In kind it is cell-based. To be noted: Staphylococcus aureus; S. aureus 29213, microbroth dilution; read-out: MIC, 29213.
Assay [4] has as its system quinolone resistant E. coli LZ3111. Description: Antibacterial activity, MIC, quinolone resistant E. coli LZ3111. The following applies: Escherichia coli, read-out: MIC, LZ3111. Type of assay: cell-based, Escherichia coli. The text has this: (§1) The antibacterial activity from a microbroth dilution method may be presented as the minimum inhibitory concentration (MIC in […]). The MIC value is the lowest concentration of a drug which prevents macroscopically visible bacterial growth under test conditions.
Mutations in these regions are known to confer a high level resistance to the quinolone class of antibiotics.

Assay [5] deals with Acinetobacter baumannii (A. baumannii) BAA747. The assay is described as follows: Antibacterial activity, MIC, A. baumannii BAA747. To be noted: Acinetobacter baumannii; A. baumannii BAA747; read-out: MIC BAA747. Type of assay: cell-based.
In assay [6] the test system is Klebsiella pneumoniae (K. pneumoniae) 35657. The assay is described as follows: Antibacterial activity, MIC, K. pneumoniae 35657. The following applies: Klebsiella pneumoniae. In kind it is cell-based.
The test system of assay [7] is resistant A. baumannii MXX2240 (MDR clinical isolate). The assay is described as follows: Antibacterial activity, MIC, resistant A. baumannii MXX2240. In kind it is cell-based, Acinetobacter baumannii. To be noted: Acinetobacter baumannii, resistant A. baumannii MMX2240, MDR clinical isolate; read-out: MIC MMX2240.
For assay [8], the system named is resistant K. pneumoniae MXX1232 (MDR clinical isolate). The assay is described as follows: Antibacterial activity, MIC, resistant K. pneumoniae MXX1232. Type of assay: cell-based, Klebsiella pneumoniae. To be noted: Klebsiella pneumoniae; resistant K. pneumoniae MMX1232, MDR clinical isolate; read-out: MIC MMX1232.
Assay [9] relates to Pseudomonas aeruginosa (P. aeruginosa) 27853. The assay is described as follows: Antibacterial activity, MIC, P. aeruginosa 27853. Type of assay: cell-based. The following applies: Pseudomonas aeruginosa, P. aeruginosa 27853; read-out: MIC 27853.
Source text: as §1
Antibacterial activity of test compounds against the Gram-negative bacterium Pseudomonas aeruginosa (P. aeruginosa) 27853 is shown in Table 5.

The test system of assay [10] is Haemophilus influenzae (H. influenzae) 49247. Description: Antibacterial activity, MIC, H. influenzae 49247. The following applies: Haemophilus influenzae; H. influenzae 49247; read-out: MIC 49247. Type of assay: cell-based. The method in brief:
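Antibacterial activity against the Gram-negative organism Haemophilus influenzae strain 49247 was measured by microbroth dilution. The minimum inhibitory concentration (MIC) was taken as the lowest drug concentration that stopped bacterial growth from being visible to the naked eye under the test conditions.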

Assay [11] relates to Moraxella catarrhalis (M. catarrhalis) 25238. The assay is described as follows: Antibacterial activity, MIC, M. catarrhalis 25238. Type of assay: cell-based. To be noted: Moraxella catarrhalis, M. catarrhalis 25238; read-out: MIC 25238.
Assay [12] deals with Neisseria meningitidis (N. meningitidis) 13090. Description: Antibacterial activity, MIC, N. meningitidis 13090. To be noted: Neisseria meningitidis; N. meningitidis 13090; read-out: MIC 13090. Type of assay: cell-based.
The subject of assay [13] is E. coli ELZ4000 (MDR clinical isolate). The assay is described as follows: Antibacterial activity, MIC, MDR E. coli ELZ4000. To be noted: Escherichia coli; E. coli ELZ4000, MDR clinical isolate; read-out: MIC ELZ4000. In kind it is cell-based, Escherichia coli.
In assay [14] the test system is E. coli ELZ4251 (MDR clinical isolate). Description: Antibacterial activity, MIC, MDR E. coli ELZ4251. Type of assay: cell-based, Escherichia coli. The following applies: Escherichia coli, E. coli ELZ4251, MDR clinical isolate; read-out: MIC ELZ4251.

In brackets after ≈: the same amount, converted by molar mass.

Consider `CCc1cc(C(=O)O)c(=O)[nH]c1-c1ccc(N(C)C)nc1` [Cpd 86, 6-[6-(dimethylamino)pyridin-3-yl]-5-ethyl-2-oxo-1,2-dihydropyridine-3-carboxylic acid], for which the MIC in assay [1] lay in the range of 1 to 3.5 µg/mL (≈ 3.48 to 12.2 µM); in [2] it was 12.5 to 150 µg/mL (≈ 43.5 to 522 µM); in assay [3], 12.5 to 150 µg/mL (≈ 43.5 to 522 µM); in [4], 12.5 to 150 µg/mL (≈ 43.5 to 522 µM); in assay [5] it was 12.5 to 150 µg/mL (≈ 43.5 to 522 µM); in assay [6], 12.5 to 150 µg/mL (≈ 43.5 to 522 µM). For the same molecule, the MIC in [7] is 12.5 to 150 µg/mL (≈ 43.5 to 522 µM); in assay [8], 12.5 to 150 µg/mL (≈ 43.5 to 522 µM); in assay [9], 12.5 to 150 µg/mL (≈ 43.5 to 522 µM); in [10], < 1 µg/mL; in [11], 1 to 3.5 µg/mL (≈ 3.48 to 12.2 µM); in [12] it was < 1 µg/mL.
As for `CCc1c(-c2ccc(N(C)C)cc2)[nH]c(=O)c(C(=O)O)c1O` [Cpd 90, 6-[4-(dimethylamino)phenyl]-5-ethyl-4-hydroxy-2-oxo-1,2-dihydropyridine-3-carboxylic acid], the MIC in [1] is < 1 µg/mL; in [2] it was 1 to 3.5 µg/mL (≈ 3.31 to 11.6 µM); in [3], 3.5 to 12.5 µg/mL (≈ 11.6 to 41.3 µM); in assay [4] it was 12.5 to 150 µg/mL (≈ 41.3 to 496 µM); in assay [13] it was 12.5 to 150 µg/mL (≈ 41.3 to 496 µM); in assay [14], 12.5 to 150 µg/mL (≈ 41.3 to 496 µM). Further, the MIC in [5] is 1 to 3.5 µg/mL (≈ 3.31 to 11.6 µM); in assay [6] it was 3.5 to 12.5 µg/mL (≈ 11.6 to 41.3 µM); in [7] it was 3.5 to 12.5 µg/mL (≈ 11.6 to 41.3 µM); in assay [8], 12.5 to 150 µg/mL (≈ 41.3 to 496 µM); in assay [9], 12.5 to 150 µg/mL (≈ 41.3 to 496 µM); in assay [11], < 1 µg/mL. For the same molecule, the MIC in assay [12] is < 1 µg/mL.
As to `CCc1cc(C(=O)O)c(=O)[nH]c1-c1ccc(N2C[C@@H]3[C@@H](N)[C@@H]3C2)cc1` [Cpd 177, 6-{4-[(1R,5S,6s)-6-amino-3-azabicyclo[3.1.0]hex-3-yl]phenyl}-5-ethyl-2-oxo-1,2-dihydropyridine-3-carboxylic acid], the MIC in assay [1] is < 1 µg/mL; in [2], < 1 µg/mL; in [3], 12.5 to 150 µg/mL (≈ 36.8 to 442 µM); in assay [4], 12.5 to 150 µg/mL (≈ 36.8 to 442 µM); in assay [13] it was 12.5 to 150 µg/mL (≈ 36.8 to 442 µM); in [14], 12.5 to 150 µg/mL (≈ 36.8 to 442 µM). For the same molecule, the MIC in [5] was 1 to 3.5 µg/mL (≈ 2.95 to 10.3 µM); in assay [6] it was < 1 µg/mL; in assay [7] it was 12.5 to 150 µg/mL (≈ 36.8 to 442 µM); in [8], 12.5 to 150 µg/mL (≈ 36.8 to 442 µM); in [9], 1 to 3.5 µg/mL (≈ 2.95 to 10.3 µM); in assay [11], < 1 µg/mL. Besides, the MIC in [12] is < 1 µg/mL.
Take `CCc1cc(C(=O)O)c(=O)[nH]c1-c1ccc(N2C[C@@H]3[C@H](C2)[C@H]3NCc2ccccc2)cc1` [Cpd 178, 6-{4-[(1R,5S,6s)-6-(benzylamino)-3-azabicyclo[3.1.0]hex-3-yl]phenyl}-5-ethyl-2-oxo-1,2-dihydropyridine-3-carboxylic acid]: the MIC in assay [1] was < 1 µg/mL; in [2] it was < 1 µg/mL; in [3], 12.5 to 150 µg/mL (≈ 29.1 to 349 µM); in assay [4], 12.5 to 150 µg/mL (≈ 29.1 to 349 µM); in assay [13], 12.5 to 150 µg/mL (≈ 29.1 to 349 µM); in assay [14] it was 12.5 to 150 µg/mL (≈ 29.1 to 349 µM). The MIC is 1 to 3.5 µg/mL (≈ 2.33 to 8.15 µM) in assay [5]; < 1 µg/mL in assay [6]; 12.5 to 150 µg/mL (≈ 29.1 to 349 µM) in assay [7]; 12.5 to 150 µg/mL (≈ 29.1 to 349 µM) in [8]; 12.5 to 150 µg/mL (≈ 29.1 to 349 µM) in [9].
For `CCc1c(-c2ccc(N3C[C@H]4CCN[C@H]4C3)cc2)[nH]c(=O)c(C(=O)O)c1O.Cl` [Cpd 246, 5-ethyl-6-{4-[(3aR,6aR)-hexahydropyrrolo[3,4-b]pyrrol-5(1H)-yl]phenyl}-4-hydroxy-2-oxo-1,2-dihydropyridine-3-carboxylic acid hydrochloride], the MIC is < 1 µg/mL in [1]; 1 to 3.5 µg/mL in [2]; 12.5 to 150 µg/mL in [3]; 12.5 to 150 µg/mL in assay [13]; 3.5 to 12.5 µg/mL in [14]; 12.5 to 150 µg/mL in assay [5]. In addition, the MIC in assay [6] fell in the range of 1 to 3.5 µg/mL; in [7] it was 12.5 to 150 µg/mL; in [8], 12.5 to 150 µg/mL; in assay [9], 12.5 to 150 µg/mL; in [10], 1 to 3.5 µg/mL; in [11], 3.5 to 12.5 µg/mL. Further, the MIC in assay [12] was 1 to 3.5 µg/mL.

The record behind these values is patent US9650395B2, “Antibacterial compounds and methods for use” (PTC Therapeutics, Inc., priority 2011, dated 2017).
